Results on 27 compounds are retold here after EP1187837B1, “THIAZEPINE INHIBITORS OF HIV-1 INTEGRASE” (THE UNITED STATES GOVERNMENT as represented by THE …, priority 1999, dated 2000).

Where “and” joins values, the source holds several entries; their conditions need not be identical. Identical values can stand only once. Like-named read-outs stand apart in the source and are kept apart here.

In data set [1] the target is T1, purified human immunodeficiency virus type-1 integrase (HIV-1 IN) (Human immunodeficiency virus type 1 group M subtype B, UniProt P12497). The data set can be described thus: Integrase assay: 3'-processing and strand transfer (3'-end joining), 32P-labeled oligonucleotide, gel/PhosphorImager, Mn2+ cofactor.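 Note: enzyme at 200 nM preincubated with inhibitor 30 min at 30°C, then 20 nM labeled 21-mer DNA for 1 h, inhibition relative to enzyme without drug, background from DNA alone.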 The conditions noted are these: purified IN 200 nM, 7.5 mM MnCl2, 30°C.
Description: (§1) The HPLC purified oligonucleotides AE117 (5'-[sequence]-3'); AE118 (5'-[sequence]-3'); AE157 (5'-[sequence]-3'); AE146 (5'-[sequence]-3'); AE156 (5'-[sequence]-3'); RM22M (5'-[sequence]-3'); and RMAB2 (5'-[sequence]-3') were purchased from Midland Certified Reagent Company (Midland, TX). An expression system for the wild-type integrase and the IN^50-212 (F185K) were obtained from the Laboratory of Molecular Biology, NIDDK, NIH, Bethesda, MD.
(§2) To analyze the extent of 3'-processing and strand transfer using 5'-end labeled substrates, AE118 was 5'-end labeled using T4 polynucleotide kinase (Gibco BRL) and γ[^32P]-ATP (Dupont-NEN). […] The kinase was heat-inactivated and AE117 was added to the same final concentration. The mixture was heated at 95°C, allowed to cool slowly to room temperature, and run through a G-25 Sephadex quick spin column (Boehringer Mannheim, Indianapolis, IN) to separate annealed double-stranded oligonucleotide from unincorporated label.
(§3) To determine the extent of 3'-processing and strand transfer, integrase was preincubated at a final concentration of 200 nM with the inhibitor in a reaction buffer (50 mM NaCl, 1 mM HEPES, pH 7.5, 50 µM EDTA, 50 µM dithiothreitol, 10% glycerol (w/v), 7.5 mM MnCl2, 0.1 mg/ml bovine serum albumin, 10 mM 2-mercaptoethanol, 10% dimethyl sulfoxide, and 25 mM MOPS, pH 7.2) at 30°C for 30 minutes. Then, 20 nM of the 5'-end ^32P-labeled linear oligonucleotide substrate was added, and incubation was continued for an additional one hour. Reactions were quenched by the addition of an equal volume (16 µl) of loading dye (98% deionized formamide, 10 mM EDTA, 0.025% xylene cyanol and 0.025% bromophenol blue). An aliquot (5 µl) was electrophoresed on a denaturing 20% polyacrylamide gel (0.09 M tris-borate pH 8.3, 2 mM EDTA, 20% acrylamide, 8M urea).
(§4) Gels were dried, exposed in a PhosphorImager cassette, and analyzed using a Molecular Dynamics PhosphorImager (Sunnyvale, CA). Percent inhibition was calculated using the following equation: %I = 100 X [1-(D-C)/(N-C)] [formula] where C, N, and D are the fractions of 21-mer substrate converted to 19-mer (3'-processing product) or strand transfer products for DNA alone (C), DNA plus integrase (N), and integrase plus drug (D). All IC50 values were determined by plotting the drug concentration versus percent inhibition, and determining the concentration which produced 50% inhibition.

Data set [2] concerns HIV-1 infected CEM cells. The data set can be described thus: Anti-HIV assay in cultured CEM cells (NCI Antiviral Drug Screen, XTT formazan). The format is cell-based. A general note: Tetrazolium dyes change colour on reduction, which living cells bring about.
Description: (§5) The anti-HIV drug testing was performed at NCI based on a protocol described by Weislow et al.^36 All compounds were dissolved in dimethyl sulfoxide and diluted 1:100 in cell culture medium. Exponentially growing T4 lymphocytes (CEM cell line) were added at 5000 cells per well. Frozen virus stock solutions were thawed immediately before use, suspended in complete medium to yield the desired multiplicity of infection (m. o. i. ≈ 0.1), and added to the microtiter wells, resulting in a 1:200 final dilution of the compound. Uninfected cells with the compound served as a toxicity control, and infected and uninfected cells without the compound served as basic controls.
(§6) Cultures were incubated at 37°C in a 5% CO2 atmosphere for 6 days. The tetrazolium salt, XTT was added to all wells, and cultures were incubated to allow formazan color development by viable cells. Individual wells were analyzed spectrophotometrically to quantitate formazan production, and in addition were viewed microscopically for detection of viable cells and confirmation of protective activity.
The nature of data set [3]: Cytotoxicity control in uninfected CEM cells (XTT formazan). Conditions: human, read-out: Cell data (µM) CC50: 50% cytotoxic concentration; for CC50 at 6 days: uninfected T4 lymphocytes (CEM cell line); for CC50 at 144 h: 6 days. The class given is cell-based.
Description: as §5, §6
The target in data set [4] is T1, purified human immunodeficiency virus type-1 integrase (HIV-1 IN). The data set can be described thus: biochemical.
Description: as §1, §2, §3, §4
For data set [5], the target named is T2, HIV-1 IN (Human immunodeficiency virus type 1 group M subtype B, UniProt P12497).
T2 construct: An expression system for the wild-type integrase; made in house
Description: Integrase assay with Mg+2 as cofactor. The conditions noted are these: compared with Mn+2. The class given is biochemical. How it is done: A 21-mer oligonucleotide corresponding to the last 21 bases on the HIV-1 viral DNA in the U5 region of long terminal repeat (LTR) was radiolabeled with ^32P. This is shown in the Figs. 2 and 3 as a band corresponding to DNA alone. Integrase will cleave the last two bases of this DNA in the presence of Mn^+2 or Mg^+2 to give a 19-mer DNA substrate (lane 2) which runs faster on the gel and is indicated as 19-mer on the Figures. When an inhibitor is added this process is blocked, therefore the original 21-mer DNA would not be cut. When an inhibitor is added at various concentrations, percent inhibition at every concentration will be calculated by quantification of the intensity of each band using an Imagequant program.
The gels are run using polyacrylamide according to the standard procedures. Upon completion of electrophoresis run, the gels are dried and exposed to a phosphorimager cassette. The cassettes are analyzed by the phosphorimager, and the bands are shown on a computer screen. The intensity of each band is quantitated, plotted against concentrations of drugs, and the IC50 values are calculated from the graphs.

Data set [6] deals with T1, purified human immunodeficiency virus type-1 integrase (HIV-1 IN).
Description: as §1, §2, §3, §4
Where [7] appears, read: Integrase Assay IC50 (µM) 3'-Processing.
Where [8] appears, read: Human immunodeficiency virus 1, CCRF-CEM, 144 h, HIV-1 infected CEM cells, 6 days, XTT, read-out: Cell data (µM) EC60: 50% effective concentration.
[9] abbreviates: Human immunodeficiency virus 1, CCRF-CEM, 144 h, read-out: Cell data (µM) EC60: 50% effective concentration, HIV-1 infected CEM cells, 6 days, XTT.
The mark [10] stands for this setting: read-out: Integrase Assay IC50 (µM) 3'-Processing.

On to `O=C1Sc2ccc(Cl)cc2C(=O)N2CCSC12` (racemic) [Compound 2, (±)-7-Chloro-2,3-dihydro-5H-thiazolo[2,3-c][1,4]benzothiazepine-5,11 (11aH)-dione], for which the IC50 in data set [1] (setting [7]) was 151 µM and 105 µM; in data set [4] it was 120 µM and 60 µM. Also, the EC50 in data set [2] (setting [8]) was above 50 µM. Further, the CC50 at 6 days in data set [3] was above 50 µM.

In the case of `O=C1Sc2ccc(Br)cc2C(=O)N2CCSC12` (racemic) [Compound 3, (±)-7-Bromo-2,3-dihydro-5H-thiazolo[2,3-c][1,4]benzothiazepine-5,11 (11aH)-dione], the half-maximal inhibitory concentration (IC50) in data set [1] (setting [7]) is 58 ± 15 µM; in data set [4] it was 48 ± 18 µM.

As to `O=C1Sc2ccccc2C(=O)N2CSCC12` (racemic) [Compound 5], in data set [2] (setting [9]), the EC50 is above 200 µM.

With `O=C1Sc2ccc(Cl)cc2C(=O)N2CSCC12` (racemic) [Compound 6, (±)-7-Chloro-1,11a-dihydro-3H,5H,11H-thiazolo[4,3-c][1,4] benzothiazepine-5,11-dione], the 50% inhibitory concentration (IC50) was 158 µM and 111 µM in data set [1] (setting [7]); 160 µM and 110 µM in data set [4]. In addition, the EC50 in data set [2] (setting [8]) was above 100 µM. Further, the CC50 at 6 days in data set [3] is above 100 µM.

Regarding `O=C1Sc2ccc(Br)cc2C(=O)N2CSCC12` (racemic) [Compound 7, (±)-7-Bromo-1,11a-dihydro-3H,5H,11H-thiazolo[4,3-c][1,4] benzothiazepine-5,11-dione], the IC50 was found to be 87 ± 24 µM in data set [1] (setting [7]) and 74 ± 32 µM in data set [4]. The EC50 in data set [2] (setting [8]) was above 200 µM. Besides, the CC50 at 6 days in data set [3] was above 200 µM.

For the compound `Cc1ccc2c(c1)C(=O)N1CSCC1C(=O)S2` (racemic) [Compound 8, (±)-1,11a-Dihydro-7-methyl-3H,5H,11H-thiazolo[4,3-c][1,4] benzothiazepine-5,11-dione], the values for the IC50 in data set [1] (setting [7]) and in data set [4] were 52 µM and 63 µM, respectively. In addition, the CC50 at 6 days in data set [3] was determined as 35 µM.

On to `O=C1Sc2cc([N+](=O)[O-])ccc2C(=O)N2CSCC12` (racemic) [Compound 9, (±)-1,11a-Dihydro-8-nitro-3H,5H,11H-thiazolo[4,3-c][1,4] benzothiazepine-5,11-dione], for which the IC50 is 90 ± 27 µM in data set [1] (setting [7]) and 100 ± 36 µM in data set [4]. In data set [2] (setting [8]), the EC50 is above 50 µM. In addition, in data set [3], the CC50 at 6 days was above 50 µM.

In the case of `COc1ccc2c(c1)C(=O)N1CSCC1C(=O)S2` (racemic) [Compound 10, (±)-1,11a-dihydro-7-methoxy-3H,5H,11H-thiazolo[4,3-c][1,4]benzothiazepine-5,11-dione], the IC50 in data set [1] (setting [7]) is 155 µM and 275 µM; in data set [4] it was 155 µM and 245 µM. Besides, the EC50 in data set [2] (setting [8]) is above 200 µM. The CC50 at 6 days in data set [3] is above 200 µM.

As to `O=C1Sc2ccccc2C(=O)N2COCC12` (racemic) [Compound 12, (±)-1,11a-Dihydro-3H,5H,11H-oxazolo[4,3-c][1,4]benzothiazepine-5,11-dione], the IC50 in data set [1] (setting [7]) and in data set [4] was above 333 µM throughout.

`Cc1ccc2c(c1)C(=O)N1CC[S@@+]([O-])[C@@H]1C(=O)S2` (racemic) [Compound 15, (±)-cis-2,3-Dihydro-7-methyl-5H-thiazolo[2,3-c][1,4]benzothiazepme-5,11 (11aH)-dione 1-Oxide]: in data set [2] (setting [9]), the EC50 is above 100 µM. In data set [3], the CC50 at 144 h is above 100 µM.

Take `O=C1Sc2cc3ccccc3cc2C(=O)N2CCSC12` (racemic) [Compound 19, (±)-2,3-Dihydro-5H-naphto[2,3-f]thiazolo[2,3-c][1,4]thiazepine-5,13(13aH)-dione]: the EC50 in data set [2] (setting [9]) was found to be 60 µM. The “inhibition of IN in the presence of Mg+2” value in data set [5] is on record as “active in the presence of Mg^+2 within the same concentration range as in Mn^+2”.

Take `O=C1Sc2cc3ccccc3cc2C(=O)N2CSCC12` (racemic) [Compound 20, (±)-1,13a-Dihydro-3H,5H,11H-naphto[2,3-f]thiazolo[4,3-c][1,4] thiazepine-5,13-dione]: in data set [2] (setting [9]), the EC50 was 279 to 286 µM. Further, in data set [5], the “inhibition of IN in the presence of Mg+2” value is reported as “active in the presence of Mg^+2 within the same concentration range as in Mn^+2”.

On to `O=C1c2ccccc2SC(O)(c2ccccc2)C2CCCN12` (racemic) [Compound 26, (±)-2,3,11,11a-Tetrahydro-11-hydroxy-11-phenyl-1H,5H-pyrrolo [2,1-c][1,4]benzothiazepin-5-one], for which the half-inhibitory concentration (IC50) in data set [1] (setting [7]) and in data set [4] was above 1000 µM each time.

`CN1CCN([C@@H]2Sc3ccccc3C(=O)N3CCC[C@@H]23)CC1` (racemic) [Compound 27, (±)-cis-2,3,11,11a-Tetrahydro-11-(4-methylpiperazin-1-yl)-1H,5H-pyrrolo[2,1-c][1,4]benzothiazepin-5-one]: the IC50 in data set [1] (setting [7]) and in data set [4] was above 1000 µM in each case. Besides, the EC50 in data set [2] (setting [8]) is above 125 µM. For the same compound, the CC50 at 6 days in data set [3] was above 125 µM.

`CN1CCN(Cc2ccc3n2Cc2ccccc2SC3c2ccccc2)CC1` (racemic) [Compound 31, (±)-3-[(4-Methylpiperazin-1-yl)methyl]-11-phenyl-5H,11H-pyrrolo [2,1-c][1,4]benzothiazepine]: the IC50 in data set [1] (setting [7]) and in data set [4] was above 1000 µM in each case.

With `O=C1Sc2ccccc2C(=O)N2CCSC12` (centres unmarked) [Compound 1], the EC50 in data set [2] (HIV-1 infected CEM cells, 6 days, XTT, read-out: Cell data (µM) EC60: 50% effective concentration) came to 107 µM; in data set [2] (setting [9]), 107 ± 26 µM. The “inhibition of IN in the presence of Mg+2” value in data set [5] is reported as “active in the presence of Mg^+2 within the same concentration range as in Mn^+2”.

Take `COc1cc2c(cc1OC)C(=O)N1CSCC1C(=O)S2` (centres unmarked) [Compound 11]: the EC50 in data set [2] (setting [9]) was above 50 µM.

For `COc1cc2c(cc1OC)C(=O)N1CCCC1C(=O)S2` (centres unmarked) [Compound 13], the IC50 in data set [1] (setting [10]) and in data set [6] was above 1000 µM each time. Moreover, the EC50 in data set [2] (setting [9]) is above 200 µM.

As for `O=C1Sc2ccccc2C(=O)N2CCCCC12` (centres unmarked) [Compound 14], the EC50 in data set [2] (setting [9]) was above 200 µM.

`CC(=O)OC1Sc2ccccc2C(=O)N2CCCC12` (centres unmarked) [Compound 21]: the 50% inhibitory concentration (IC50) in data set [1] (setting [10]) and in data set [6] was above 1000 µM each time. Moreover, the EC50 in data set [2] (setting [9]) was above 200 µM.

As for `COC1Sc2ccccc2C(=O)N2CCCC12` (centres unmarked) [Compound 22], the IC50 in data set [1] (setting [7]) and in data set [4] was above 1000 µM in each case. Further, the EC50 in data set [2] (setting [9]) is above 200 µM. The CC50 at 144 h in data set [3] was above 200 µM.

As for `O=C1c2ccccc2SCC2CSC(c3ccccc3)N12` (centres unmarked) [Compound 23], the concentration for half-maximal inhibition (IC50) in data set [1] (setting [7]) amounted to 111 µM; in data set [4], 288 µM.

As to `COc1cc2c(cc1OC)C(=O)N1CCCC1CS2` (centres unmarked) [Compound 24], the IC50 in data set [1] (setting [10]) and in data set [6] was above 1000 µM throughout. In addition, in data set [2] (setting [9]), the EC50 was above 200 µM.

In the case of `O=C1c2ccccc2SC(O)C2CCCN12` (centres unmarked) [Compound 25], the IC50 in data set [1] (setting [10]) and in data set [6] was above 1000 µM in each case. For the same compound, the EC50 in data set [2] (setting [9]) was above 200 µM.

With `O=C1Sc2ccccc2Cn2cccc21` [Compound 28], in data set [2] (setting [9]), the EC50 came out at 146 µM. Besides, the CC50 at 144 h in data set [3] was above 200 µM.

For the compound `CCOC(=O)C1Sc2ccccc2Cn2cccc21` (centres unmarked) [Compound 29], the half-inhibitory concentration (IC50) in data set [1] (setting [7]) and in data set [4] was above 1000 µM throughout.

As to `CN(C)Cc1ccc2n1Cc1ccccc1SC2c1ccc(F)cc1` (centres unmarked) [Compound 30], the IC50 in data set [1] (setting [7]) and in data set [4] was above 1000 µM throughout.

In general, IC50 refers to the concentration that gives 50% inhibition.
